# Measured values: publication PMC8905313, “Overexpression of ABCB1 Associated With the Resistance to the KRAS-G12C Specific Inhibitor ARS-1620 in Cancer Cells” (Frontiers in Pharmacology, 2022)
# pEC50: −log10 of the molar value.
# Molecular target: T1, ABCB1 (Homo sapiens, UniProt P08183)
# T1 construct: ABCB1 membrane vesicles
# Assay: vanadate-sensitive ATPase stimulation in ABCB1 membrane vesicles; supported by HPLC efflux and [3H]-paclitaxel accumulation in KB-C2 cells
# Assay type: biochemical
# T1 sequence (P08183 whole entry): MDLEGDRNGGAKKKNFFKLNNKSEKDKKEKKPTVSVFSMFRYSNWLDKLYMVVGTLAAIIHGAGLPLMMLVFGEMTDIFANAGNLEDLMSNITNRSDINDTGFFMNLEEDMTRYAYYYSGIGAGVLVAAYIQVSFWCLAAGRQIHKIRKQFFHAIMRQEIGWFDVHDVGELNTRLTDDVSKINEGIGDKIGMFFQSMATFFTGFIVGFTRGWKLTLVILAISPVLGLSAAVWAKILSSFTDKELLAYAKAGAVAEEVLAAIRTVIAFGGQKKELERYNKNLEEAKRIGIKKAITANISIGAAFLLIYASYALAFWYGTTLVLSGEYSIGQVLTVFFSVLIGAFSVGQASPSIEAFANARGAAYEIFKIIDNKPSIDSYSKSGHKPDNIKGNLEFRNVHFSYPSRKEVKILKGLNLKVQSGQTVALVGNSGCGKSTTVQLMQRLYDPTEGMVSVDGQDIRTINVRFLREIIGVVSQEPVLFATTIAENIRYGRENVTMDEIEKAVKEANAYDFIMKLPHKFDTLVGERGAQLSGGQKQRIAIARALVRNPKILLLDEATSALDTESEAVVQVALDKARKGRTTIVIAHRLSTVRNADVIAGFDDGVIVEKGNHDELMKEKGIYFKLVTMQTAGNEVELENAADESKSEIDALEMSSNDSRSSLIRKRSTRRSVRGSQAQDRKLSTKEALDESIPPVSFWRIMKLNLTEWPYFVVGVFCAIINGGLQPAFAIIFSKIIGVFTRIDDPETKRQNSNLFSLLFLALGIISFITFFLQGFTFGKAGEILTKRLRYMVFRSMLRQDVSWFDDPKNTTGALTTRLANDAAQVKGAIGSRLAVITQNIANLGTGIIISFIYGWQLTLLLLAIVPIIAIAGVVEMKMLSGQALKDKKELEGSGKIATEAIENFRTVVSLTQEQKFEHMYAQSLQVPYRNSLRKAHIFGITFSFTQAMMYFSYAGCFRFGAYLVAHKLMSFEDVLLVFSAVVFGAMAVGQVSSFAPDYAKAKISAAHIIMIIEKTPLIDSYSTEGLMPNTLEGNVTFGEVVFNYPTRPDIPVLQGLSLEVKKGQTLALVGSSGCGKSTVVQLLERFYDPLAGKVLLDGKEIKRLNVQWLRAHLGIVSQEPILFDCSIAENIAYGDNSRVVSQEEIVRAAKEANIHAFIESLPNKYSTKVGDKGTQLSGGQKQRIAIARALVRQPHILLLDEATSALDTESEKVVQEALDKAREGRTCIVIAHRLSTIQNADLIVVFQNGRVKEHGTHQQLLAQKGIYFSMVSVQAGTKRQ
smiles,measurement,value
C=CC(=O)N1CCN(c2ncnc3c(F)c(-c4c(O)cccc4F)c(Cl)cc23)CC1 [ARS-1620],pEC50,4.83
